Series [1] can be described thus: Liver microsome metabolic stability (human). Type of series: in vitro ADME. Conditions: human liver microsomes, read-out: Half Life t1/2, liver microsome metabolic stability (converted). The method, then:
(§1) 8 μL human liver microsomes (20 mg/mL), 20 μL NADPH and 368 μL of 0.1 M phosphate buffer were mixed, and then pre-incubated at 37° C. for 5 minutes. 4 μL working solutions (test compounds or positive control) were added, respectively. When pre-incubated at 37° C., 50 μL incubation solutions were taken out at 0, 10, 20, 30, 45 and 60 minute, and thereto was added a 150 μL solution of internal standard ([…]) in acetonitrile. 4 μL rat liver microsomes (20 mg/mL), 10 μL NADPH and 184 μL of 0.1 M phosphate buffer were mixed, and then pre-incubated at 37° C. for 5 minutes. 2 μL working solutions (test compounds or positive control) were added, respectively. When pre-incubated at 37° C., 20 μL incubation solutions were taken out at 0, 10, 20, 30, 45 and 60 minute, and thereto was added a 180 μL solution of internal standard (0.25 M warfarin) in acetonitrile. All samples were vortexed and centrifuged at 4000 rpm for 15 min, and 150 μL supernatants were added to a 96-well plate, and then 5 μL supernatants were detected in LC/MS/MS system. Chromatographic column for analysis was C18 1.7 μm 2.1×50 mm (Waters). Triple quadrupole mass spectrometry (API4000, AB Company) was used in detection. A ratio of the peak area of CT-1225 to that of the internal standard was detected in positive ion mode. […]
For orientation: Liver microsomes are vesicles of endoplasmic reticulum, rich in cytochrome P450 enzymes.

Series [2] is described as follows: Liver microsome metabolic stability (rat). In kind it is in vitro ADME. Conditions: rat liver microsomes, read-out: Half Life t1/2, liver microsome metabolic stability (converted). The method, then:
as §1

Another series concerns the target serum DPP-IV (Mus musculus (Mouse), UniProt P28843). In words: in vivo. Conditions: for response vs control in vivo at 30 mg/kg: po, read-out: Specific activity of DPP-IV.
Series [3] is described as follows: Measuring pharmacokinetics parameters in rats after intragastric administration. Type of series: in vivo. Conditions: male, plasma; rat, PO, 5 mg/kg, 20% sulfobutyl-β-cyclodextrin. The method, then:
The pharmacokinetic parameters of compounds of the present application were determined by using the following method.
Healthy male adult rats (7-9 weeks old) were used in this study. Each group of animals (3 male rats) was intragastrically administered once at a single dose of 5 mg/kg. The animals in the intragastric administration group were fasted overnight before this study. The fasting time period was from 10 hours before administration to 4 hours after administration.
Blood samples were taken at 0.25, 0.5, 1, 2, 4, 6, 8 and 24 h after administration. The animals were anesthetized with isoflurane using an animal anesthesia machine, and then 0.3 mL whole blood samples were taken from the fundus venous plexus. The blood samples were placed in heparin anticoagulant tubes, and centrifuged for 5 min at 4° C. and 4000 rpm. The resulting plasmas were transferred to centrifuge tubes, and stored at −80° C. until analysis.
Verified LC-MS/MS method was used to analyze the plasma samples. Plasma concentration-time data of animals were analyzed using WinNonlin (Professional Edition, version 6.3; Pharsight Company) software. The non-compartmental model was introduced for concentration analysis.

The next series has as its target CYP2D6 (Homo sapiens (Human), UniProt P10635). Nature of the series: biochemical. Type of series: in vitro ADME. Conditions: human liver microsomes; read-out: IC50 in inhibiting CYP Enzyme System 2D6. The method, then:
(§2) IC50 values of compounds of the present application in inhibiting CYP enzyme system were determined by using the following method.
Human liver microsomes frozen at −80° C. in refrigerator were placed on ice for thawing, of which 100 μL was placed in a constant temperature oscillator for incubation (1 hour) at 60° C. and 100 rpm when immediately thawing, and the rest was frozen immediately in refrigerator at −80° C. After one hour, 100 μL inactivated liver microsomes were taken out, and thereto was added 400 μL phosphate buffer, and uniformly mixed to form a 4 mg/mL solution of inactivated liver microsomes. Meanwhile, human liver microsomes frozen at −80° C. in refrigerator were placed on ice for thawing, of which 100 μL was taken out when immediately thawing, and thereto was added 400 μL phosphate buffer, and uniformly mixed to form a 4 mg/mL solution of liver microsomes. The incubation mixtures for a positive control, test compounds and a negative control were prepared according to Table 3 below: […]
(§3) Analyst 1.4.2 or equivalent software was used for data processing. Integrals were detected to ensure that all peaks were properly integrated, and if necessary, adjust integral parameters.
(§4) The quantification of an analyte was defined as a ratio of a peak area of the analyte to that of the internal standard.

The target of a further series is CYP2B6 (Homo sapiens (Human), UniProt P20813). Nature of the series: IC50 of inhibiting CYP enzyme system, human liver microsomes. In kind it is in vitro ADME. Conditions: read-out: IC50 in inhibiting CYP Enzyme System 2B6. The method, then: as §2
Sequence of CYP2B6 (P20813 whole entry): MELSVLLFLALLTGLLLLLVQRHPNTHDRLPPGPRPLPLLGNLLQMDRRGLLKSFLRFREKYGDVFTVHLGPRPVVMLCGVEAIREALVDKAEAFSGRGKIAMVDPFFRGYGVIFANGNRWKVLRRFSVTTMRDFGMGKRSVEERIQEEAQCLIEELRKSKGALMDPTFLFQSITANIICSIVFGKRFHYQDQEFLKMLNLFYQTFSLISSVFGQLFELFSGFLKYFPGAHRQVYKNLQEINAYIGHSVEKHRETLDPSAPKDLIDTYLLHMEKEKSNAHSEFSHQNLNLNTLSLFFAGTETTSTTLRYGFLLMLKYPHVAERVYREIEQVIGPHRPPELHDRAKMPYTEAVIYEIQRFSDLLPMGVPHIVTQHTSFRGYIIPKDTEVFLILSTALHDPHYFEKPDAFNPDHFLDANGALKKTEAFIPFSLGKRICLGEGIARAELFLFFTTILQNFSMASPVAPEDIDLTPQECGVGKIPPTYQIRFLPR
(§5) Human liver microsomes frozen at −80° C. in refrigerator were placed on ice for thawing, of which 100 μL was placed in a constant temperature oscillator for incubation (1 hour) at 60° C. and 100 rpm when immediately thawing, and the rest was frozen immediately in refrigerator at −80° C. After one hour, 100 μL inactivated liver microsomes were taken out, and thereto was added 400 μL phosphate buffer, and uniformly mixed to form a 4 mg/mL solution of inactivated liver microsomes. Meanwhile, human liver microsomes frozen at −80° C. in refrigerator were placed on ice for thawing, of which 100 μL was taken out when immediately thawing, and thereto was added 400 μL phosphate buffer, and uniformly mixed to form a 4 mg/mL solution of liver microsomes. The incubation mixtures for a positive control, test compounds and a negative control were prepared according to Table 3 below:
(§6) The above incubation mixtures were incubated for 5 minutes in a constant temperature oscillator at 37° C. and 100 rpm.
(§7) To 2.5 μL working solution of the test compounds or positive control (the negative control was added to the working solution of the test compounds) were added 91.5 μL the incubation mixtures and 6 μL NADPH solution, and then the reaction was initiated via vortex. The resulting solutions were incubated in a constant temperature oscillator at 37° C. and 100 rpm, and the incubation time was shown in Table 4 below:
(§8) Samples from the terminated reaction were centrifuged at 12000 rpm for 10 minutes, and supernatants were taken out for analysis.
as §3, §4

A further series addresses CYP2C19 (Homo sapiens (Human), UniProt P33261). The series is described as above. In kind it is in vitro ADME. Conditions: read-out: IC50 in inhibiting CYP Enzyme System 2C19. The method, then: as §2, §5, §6, §7, §8, §3, §4
The target of another series is CYP1A2 (Homo sapiens (Human), UniProt P05177). Described as above. Conditions: read-out: IC50 in inhibiting CYP Enzyme System 1A2. Type of series: in vitro ADME. The method, then:
as §2, §5, §6, §7, §8, §3, §4

Another series concerns the target CYP2C9 (Homo sapiens (Human), UniProt P11712). The description is as above. Conditions: read-out: IC50 in inhibiting CYP Enzyme System 2C9. Type of series: in vitro ADME. The method, then: as §2, §5, §6, §7, §8, §3, §4
In the next series the target is CYP2C8 (Homo sapiens (Human), UniProt P10632). The series is described as above. Type of series: in vitro ADME. Conditions: read-out: IC50 in inhibiting CYP Enzyme System 2C8. The method, then: as §2, §5, §6, §7, §8, §3, §4
Sequence of CYP2C8 (P10632 whole entry): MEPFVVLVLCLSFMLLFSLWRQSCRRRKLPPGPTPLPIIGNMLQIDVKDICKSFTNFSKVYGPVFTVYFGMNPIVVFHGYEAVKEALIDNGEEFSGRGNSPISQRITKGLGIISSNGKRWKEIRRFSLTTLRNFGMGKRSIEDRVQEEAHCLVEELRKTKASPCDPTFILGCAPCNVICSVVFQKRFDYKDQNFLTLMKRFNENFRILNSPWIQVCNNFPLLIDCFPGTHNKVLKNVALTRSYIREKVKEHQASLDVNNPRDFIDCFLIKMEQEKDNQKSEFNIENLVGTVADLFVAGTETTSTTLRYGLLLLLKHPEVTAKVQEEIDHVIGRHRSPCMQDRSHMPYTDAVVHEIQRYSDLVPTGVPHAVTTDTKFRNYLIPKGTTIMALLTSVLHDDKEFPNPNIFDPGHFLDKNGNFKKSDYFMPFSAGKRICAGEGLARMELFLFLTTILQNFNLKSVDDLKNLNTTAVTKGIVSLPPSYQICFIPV
A further series addresses CYP3A4 (Homo sapiens (Human), UniProt P08684). The description is as above. Type of series: in vitro ADME. The method, then: as §2, §5, §6, §7, §8, §3, §4

Read-outs that look alike come from different tables or passages of the source.

Sequence of serum DPP-IV (P28843 37-760): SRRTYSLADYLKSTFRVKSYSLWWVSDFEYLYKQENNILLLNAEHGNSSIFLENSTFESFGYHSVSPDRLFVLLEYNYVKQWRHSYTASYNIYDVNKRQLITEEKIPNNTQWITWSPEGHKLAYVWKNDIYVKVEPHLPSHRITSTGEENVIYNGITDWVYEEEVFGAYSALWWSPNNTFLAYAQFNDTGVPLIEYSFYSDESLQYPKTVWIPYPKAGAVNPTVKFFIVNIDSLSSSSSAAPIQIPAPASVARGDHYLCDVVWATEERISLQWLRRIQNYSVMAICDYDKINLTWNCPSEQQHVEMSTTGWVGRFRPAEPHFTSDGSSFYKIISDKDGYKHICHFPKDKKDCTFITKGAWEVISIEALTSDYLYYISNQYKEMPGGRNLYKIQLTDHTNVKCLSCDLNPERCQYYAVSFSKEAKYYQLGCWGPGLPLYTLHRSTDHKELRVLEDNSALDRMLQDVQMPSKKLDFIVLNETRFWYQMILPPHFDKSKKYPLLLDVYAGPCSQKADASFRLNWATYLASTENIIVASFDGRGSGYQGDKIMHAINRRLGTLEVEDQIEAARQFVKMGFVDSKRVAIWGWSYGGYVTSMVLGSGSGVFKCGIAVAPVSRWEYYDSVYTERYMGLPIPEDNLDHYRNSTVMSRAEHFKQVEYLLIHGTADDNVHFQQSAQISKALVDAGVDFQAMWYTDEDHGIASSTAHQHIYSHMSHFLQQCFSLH
Sequence of CYP3A4 (P08684 whole entry): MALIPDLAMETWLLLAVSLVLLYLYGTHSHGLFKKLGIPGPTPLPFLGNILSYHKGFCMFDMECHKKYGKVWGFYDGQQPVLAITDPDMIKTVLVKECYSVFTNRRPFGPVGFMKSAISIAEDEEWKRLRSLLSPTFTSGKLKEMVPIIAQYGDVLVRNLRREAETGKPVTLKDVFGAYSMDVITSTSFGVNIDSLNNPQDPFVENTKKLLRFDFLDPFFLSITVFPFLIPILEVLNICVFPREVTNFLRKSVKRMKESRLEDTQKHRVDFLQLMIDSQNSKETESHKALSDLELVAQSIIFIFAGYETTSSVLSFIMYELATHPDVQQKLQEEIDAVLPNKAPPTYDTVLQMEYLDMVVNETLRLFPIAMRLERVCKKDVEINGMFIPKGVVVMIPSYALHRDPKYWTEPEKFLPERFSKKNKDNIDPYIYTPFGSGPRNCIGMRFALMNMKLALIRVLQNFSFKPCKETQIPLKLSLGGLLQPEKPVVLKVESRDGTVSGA
Sequence of CYP2D6 (P10635 whole entry): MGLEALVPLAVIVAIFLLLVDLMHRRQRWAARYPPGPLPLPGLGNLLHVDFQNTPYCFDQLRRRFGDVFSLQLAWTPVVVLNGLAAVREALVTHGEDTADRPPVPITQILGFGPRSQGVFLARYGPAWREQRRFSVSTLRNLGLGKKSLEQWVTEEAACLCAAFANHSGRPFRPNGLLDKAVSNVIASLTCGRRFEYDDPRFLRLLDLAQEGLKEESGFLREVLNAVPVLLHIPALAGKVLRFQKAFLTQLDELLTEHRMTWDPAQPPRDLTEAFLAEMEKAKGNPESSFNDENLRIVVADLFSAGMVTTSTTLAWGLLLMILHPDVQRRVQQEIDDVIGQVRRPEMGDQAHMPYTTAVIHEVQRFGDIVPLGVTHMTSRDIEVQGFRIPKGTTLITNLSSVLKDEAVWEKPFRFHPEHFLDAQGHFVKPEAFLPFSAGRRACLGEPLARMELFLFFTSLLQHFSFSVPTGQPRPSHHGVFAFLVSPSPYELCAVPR
Sequence of CYP2C9 (P11712 whole entry): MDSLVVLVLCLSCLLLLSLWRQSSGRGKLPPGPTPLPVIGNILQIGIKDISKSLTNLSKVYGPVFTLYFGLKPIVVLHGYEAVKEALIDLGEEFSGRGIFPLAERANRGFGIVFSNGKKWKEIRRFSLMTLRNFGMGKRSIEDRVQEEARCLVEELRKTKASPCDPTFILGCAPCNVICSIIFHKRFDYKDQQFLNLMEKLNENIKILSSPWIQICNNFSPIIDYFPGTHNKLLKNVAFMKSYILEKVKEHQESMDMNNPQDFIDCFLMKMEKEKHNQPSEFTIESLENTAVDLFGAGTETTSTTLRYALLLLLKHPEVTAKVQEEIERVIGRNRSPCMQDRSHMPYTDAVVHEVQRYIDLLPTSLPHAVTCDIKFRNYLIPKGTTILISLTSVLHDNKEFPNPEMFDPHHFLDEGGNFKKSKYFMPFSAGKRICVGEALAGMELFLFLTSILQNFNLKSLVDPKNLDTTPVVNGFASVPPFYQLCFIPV
Sequence of CYP1A2 (P05177 whole entry): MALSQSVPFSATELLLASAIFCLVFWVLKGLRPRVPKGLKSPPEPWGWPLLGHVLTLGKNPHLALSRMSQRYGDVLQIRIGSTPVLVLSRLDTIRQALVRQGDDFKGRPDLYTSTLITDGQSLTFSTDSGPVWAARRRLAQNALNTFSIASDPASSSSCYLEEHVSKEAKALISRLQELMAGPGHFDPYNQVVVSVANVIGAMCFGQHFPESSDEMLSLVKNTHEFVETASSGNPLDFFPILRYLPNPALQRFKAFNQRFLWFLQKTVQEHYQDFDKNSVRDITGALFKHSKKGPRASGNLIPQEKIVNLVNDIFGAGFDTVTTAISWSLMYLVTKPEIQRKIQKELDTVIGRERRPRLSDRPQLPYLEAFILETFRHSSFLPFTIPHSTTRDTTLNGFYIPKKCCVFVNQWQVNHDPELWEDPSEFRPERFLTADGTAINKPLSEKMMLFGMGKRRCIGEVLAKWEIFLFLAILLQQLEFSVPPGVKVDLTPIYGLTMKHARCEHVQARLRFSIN
Sequence of CYP2C19 (P33261 whole entry): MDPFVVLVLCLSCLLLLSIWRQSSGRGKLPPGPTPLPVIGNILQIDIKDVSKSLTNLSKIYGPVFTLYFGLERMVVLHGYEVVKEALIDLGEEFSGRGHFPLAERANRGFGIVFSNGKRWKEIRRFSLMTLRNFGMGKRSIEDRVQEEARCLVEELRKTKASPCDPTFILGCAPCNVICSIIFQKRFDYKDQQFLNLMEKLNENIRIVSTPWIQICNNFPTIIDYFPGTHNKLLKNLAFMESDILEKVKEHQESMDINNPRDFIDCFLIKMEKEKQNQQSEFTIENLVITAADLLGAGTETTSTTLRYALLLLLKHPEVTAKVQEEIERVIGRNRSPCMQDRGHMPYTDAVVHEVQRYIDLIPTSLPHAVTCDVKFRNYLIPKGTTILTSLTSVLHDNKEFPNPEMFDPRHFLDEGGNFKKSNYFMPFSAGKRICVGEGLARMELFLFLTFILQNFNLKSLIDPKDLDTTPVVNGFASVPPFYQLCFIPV

For `CS(=O)(=O)n1cc2c(n1)CN([C@H]1CO[C@H](c3cc(F)ccc3F)[C@@H](N)C1)C2` [Omarigliptin], the half-life in series [1] was 4.09 h; in series [2] it was 21.1 h. Also, the response vs control in vivo at 30 mg/kg turned out to be 8.4% on serum DPP-IV (2 h); 7.4% at serum DPP-IV (4 h); 9.1% at serum DPP-IV (10 h); 15.6% at serum DPP-IV (24 h); 20.2% on serum DPP-IV (34 h); 45.5% on serum DPP-IV (48 h). For the same molecule, the response vs control in vivo at 30 mg/kg on serum DPP-IV (58 h) came to 41.2%; on serum DPP-IV (72 h), 58.4%; on serum DPP-IV (96 h), 68%. In addition, the inhibition at 30 mg/kg on serum DPP-IV (read-out: inhibitory rate of serum DPP-IV activity in mice) is above 70%.
As to `N[C@H]1C[C@@H](N2Cc3ccc(S(=O)(=O)C4CC4)cc3C2)CO[C@@H]1c1cc(F)ccc1F` [Example 9, (2R,3S,5R)-5-(5-cyclopropylsulfonylisoindolin-2-yl)-2-(2,5-difluorophenyl) tetrahydro-2H-pyran-3-amine], in [3], the AUC(0-inf) was determined as 52200 ng·h/mL, the Cmax came to 5960 ng/mL, the time to peak (Tmax) came out at 2 h and the half-life is 32.5 h.
On to `CS(=O)(=O)c1ccc2c(c1)CN([C@H]1CO[C@H](c3cc(F)ccc3F)[C@@H](N)C1)C2` [Example 4, (2R,3S,5R)-5-(5-methylsulfonylisoindolin-2-yl)-2-(2,5-difluorophenyl)tetrahydro-2H-pyran-3-amine], for which the half-life is 4.52 h in series [1], 8.26 h in series [2] and 17.1 h in series [3]. Further, the IC50 at CYP2D6, at CYP2B6, at CYP2C19, on CYP1A2, at CYP2C9 and at CYP2C8 was above 25 µM in each case. In addition, the half-maximal inhibitory concentration (IC50) at CYP3A4 (substrate Midazolam, read-out: IC50 in inhibiting CYP Enzyme System 3A4_Mid) was above 25 µM; at CYP3A4 (substrate Testosterone, read-out: IC50 in inhibiting CYP Enzyme System 3A4_Tes), above 25 µM. Moreover, in series [3], the AUC(0-inf) was determined as 45600 ng·h/mL. The molecule also displayed a maximum concentration (Cmax) in [3] of 4390 ng/mL. The Tmax in series [3] was 1.67 h.

The AUC(0-inf) is the area under the concentration-time curve extrapolated to infinity. What is called Cmax is the maximum level reached in the sampled fluid or tissue. A word on the Tmax: it is the time from dosing to the highest level. As a reminder, the IC50 is the concentration at which inhibition is half-maximal.

(Values after US10155775B2, “Substituted amino six-membered saturated heteroalicycles as long-acting DPP-IV inhibitors” (Centaurus Biopharma Co., Ltd., priority 2015, dated 2018).)
